Data reported in US12421229B2, “Hydropyrido[1,2-α]pyrazine compounds for the treatment of autoimmune disease” (Hoffmann-La Roche Inc., priority 2019, dated 2025).

target: T1, human TLR9 (Homo sapiens, UniProt Q9NR96); experiment: HEK293-Blue-hTLR-9 cells assay; type: cell-based; conditions: HEK293-Blue-hTLR9 cells, ODN2006 stimulation, 20 hrs, SEAP reporter; read-out: HEK/hTLR9 IC50
T1 construct: host or cells: HEK293 (HEK-Blue hTLR9)
T1 sequence (Q9NR96 26-1032): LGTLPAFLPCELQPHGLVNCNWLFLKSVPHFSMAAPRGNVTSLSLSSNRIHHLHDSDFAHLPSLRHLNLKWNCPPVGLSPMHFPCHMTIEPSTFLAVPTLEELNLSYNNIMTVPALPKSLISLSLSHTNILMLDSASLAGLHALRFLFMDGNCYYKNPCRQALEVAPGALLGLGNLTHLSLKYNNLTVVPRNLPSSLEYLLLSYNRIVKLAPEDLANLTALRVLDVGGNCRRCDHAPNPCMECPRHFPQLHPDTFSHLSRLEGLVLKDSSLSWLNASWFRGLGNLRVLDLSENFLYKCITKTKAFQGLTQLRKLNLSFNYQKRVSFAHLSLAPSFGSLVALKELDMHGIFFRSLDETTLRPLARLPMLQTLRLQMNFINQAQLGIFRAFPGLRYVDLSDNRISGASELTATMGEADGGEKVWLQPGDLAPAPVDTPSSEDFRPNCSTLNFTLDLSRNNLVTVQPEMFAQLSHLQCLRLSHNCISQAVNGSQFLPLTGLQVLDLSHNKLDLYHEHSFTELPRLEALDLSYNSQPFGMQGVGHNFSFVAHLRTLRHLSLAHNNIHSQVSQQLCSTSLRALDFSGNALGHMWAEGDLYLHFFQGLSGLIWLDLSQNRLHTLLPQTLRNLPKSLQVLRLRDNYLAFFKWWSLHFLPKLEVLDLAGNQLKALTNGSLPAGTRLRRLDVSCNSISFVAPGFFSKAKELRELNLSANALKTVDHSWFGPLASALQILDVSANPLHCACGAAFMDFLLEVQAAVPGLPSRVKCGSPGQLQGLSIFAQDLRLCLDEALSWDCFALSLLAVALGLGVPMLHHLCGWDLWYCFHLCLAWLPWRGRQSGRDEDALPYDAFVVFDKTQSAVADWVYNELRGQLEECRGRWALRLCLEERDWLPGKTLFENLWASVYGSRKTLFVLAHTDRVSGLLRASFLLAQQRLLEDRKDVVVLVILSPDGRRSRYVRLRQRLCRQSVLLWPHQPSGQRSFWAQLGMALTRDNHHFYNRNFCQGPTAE
Source text: A stable HEK293-Blue-hTLR-9 cell line was purchased from InvivoGen (Cat. #: hkb-htlr9, San Diego, California, USA). These cells were originally designed for studying the stimulation of human TLR9 by monitoring the activation of NF-κB. A SEAP (secreted embryonic alkaline phosphatase) reporter gene was placed under the control of the IFN-β minimal promoter fused to five NF-κB and AP-1-binding sites. The SEAP was induced by activating NF-κB and AP-1 via stimulating HEK-Blue hTLR9 cells with TLR9 ligands. Therefore the reporter expression was declined by TLR9 antagonist under the stimulation of a ligand, such as ODN2006 (Cat. #: tlrl-2006-1, Invivogen, San Diego, California, USA), for incubation of 20 hrs. The cell culture supernatant SEAP reporter activity was determined using QUANTI-Blue™ kit (Cat. #: rep-qb1, Invivogen, San Diego, California, USA) at a wavelength of 640 nm, a detection medium that turns purple or blue in the presence of alkaline phosphatase.
HEK293-Blue-hTLR9 cells were incubated at a density of 250,000˜450,000 cells/mL in a volume of 170 μL in a 96-well plate in Dulbecco's Modified Eagle's medium (DMEM) containing 4.5 g/L glucose, 50 U/mL penicillin, […], 2 mM L-glutamine, 10% (v/v) heat-inactivated fetal bovine serum with addition of 20 μL test compound in a serial dilution in the presence of final DMSO at 1% and 10 μL of 20 uM ODN2006 in above DMEM, perform incubation under 37° C. in a CO2 incubator for 20 hrs. Then 20 μL of the supernatant from each well was incubated with 180 μL Quanti-blue substrate solution at 37° C. for 2 h and the absorbance was read at 620˜655 nm using a spectrophotometer. The signaling pathway that TLR9 activation leads to downstream NF-κB activation has been widely accepted, and therefore similar reporter assay was modified for evaluating TLR9 antagonist.

IC50 [nM]	Structure (SMILES)
< 32	C[C@@H]1CN(c2ccc(C#N)c3ncccc23)C[C@@H]2C[C@H](NCc3ccc(N4CCNCC4)cc3)CCN21 [Example 1, 5-[(4R,8R,9aS)-4-methyl-8-[(4-piperazin-1-ylphenyl)methylamino]-1,3,4,6,7,8,9,9a-octahydropyrido[1,2-a]pyrazin-2-yl]quinoline-8-carbonitrile]
92	C[C@@H]1CN(c2ccc(C#N)c3ncccc23)CC2C[C@H](c3ccc(N4CCNCC4)cc3)CCN21 (stereo partly drawn) [Example 3, 5-[(4R,8R)-4-methyl-8-(4-piperazin-1-ylphenyl)-1,3,4,6,7,8,9,9a-octahydropyrido[1,2-a]pyrazin-2-yl]quinoline-8-carbonitrile]
86	C[C@@H]1CN(c2ccc(C#N)c3ncccc23)C[C@@H]2C[C@H](c3ccc(N4CCNCC4)nc3)CCN21 [Example 4, 5-[(4R,8R,9aS)-4-methyl-8-(6-piperazin-1-yl-3-pyridyl)-1,3,4,6,7,8,9,9a-octahydropyrido[1,2-a]pyrazin-2-yl]quinoline-8-carbonitrile]
84	C[C@@H]1CN(c2ccc(C#N)c3ncccc23)C[C@H]2C[C@H](c3ccc(N4CCNCC4)nc3)CCN21 [Example 15, 5-[(4R,8R,9aR)-4-methyl-8-(6-piperazin-1-yl-3-pyridyl)-1,3,4,6,7,8,9,9a-octahydropyrido[1,2-a]pyrazin-2-yl]quinoline-8-carbonitrile]
< 32	C[C@@H]1CN(c2ccc(C#N)c3ncccc23)C[C@@H]2C[C@@H](NCc3ccc(N4CCNCC4)cc3)CCN21 [Example 17, 5-[(4R,8S,9aS)-4-methyl-8-[(4-piperazin-1-ylphenyl)methylamino]-1,3,4,6,7,8,9,9a-octahydropyrido[1,2-a]pyrazin-2-yl]quinoline-8-carbonitrile]
82	C[C@@H]1CN(c2ccc(C#N)c3ncccc23)C[C@@H]2C[C@@H](c3ccc(C4CNCCO4)cc3)CCN21 (stereo partly drawn) [Example 24, 5-[(4R,8S,9aS)-4-methyl-8-(4-morpholin-2-ylphenyl)-1,3,4,6,7,8,9,9a-octahydropyrido[1,2-a]pyrazin-2-yl]quinoline-8-carbonitrile]
89	C[C@@H]1CN(c2ccc(C#N)c3ncccc23)C[C@@H]2C[C@@H](Oc3cncc(N4CCNCC4)c3)CCN21 [Example 29, 5-[(4R,8S,9aS)-4-methyl-8-[(5-piperazin-1-yl-3-pyridyl)oxy]-1,3,4,6,7,8,9,9a-octahydropyrido[1,2-a]pyrazin-2-yl]quinoline-8-carbonitrile]

The next lines start with the compound.

Structure (SMILES)	IC50 [nM]
C[C@@H]1CN(c2ccc(C#N)c3ncccc23)C[C@@H]2CC(c3ccc(C[C@@H]4CNCCO4)cc3)CCN21 (stereo in doubt) [Example 25, 5-[(4R,8R,9aS)-4-methyl-8-[4-[[(2R)-morpholin-2-yl]methyl]phenyl]-1,3,4,6,7,8,9,9a-octahydropyrido[1,2-a]pyrazin-2-yl]quinoline-8-carbonitrile]	78
C[C@@H]1CN(c2ccc(C#N)c3ncccc23)C[C@@H]2C[C@H](c3ccc(N4CC(N)C4)nc3)CCN21 [Example 7, 5-[(4R,8R,9aS)-8-[6-(3-aminoazetidin-1-yl)-3-pyridyl]-4-methyl-1,3,4,6,7,8,9,9a-octahydropyrido[1,2-a]pyrazin-2-yl]quinoline-8-carbonitrile]	184
CO[C@@H]1CN(c2ccc([C@@H]3CCN4[C@@H](C3)CN(c3ccc(C#N)c5ncccc35)C[C@H]4C)cn2)C[C@@H]1N [Example 13, 5-[(4R,8R,9aS)-8-[6-[(3S,4R)-3-amino-4-methoxy-pyrrolidin-1-yl]-3-pyridyl]-4-methyl-1,3,4,6,7,8,9,9a-octahydropyrido[1,2-a]pyrazin-2-yl]quinoline-8-carbonitrile]	94
C[C@@H]1CN(c2ccc(C#N)c3ncccc23)C[C@@H]2C[C@@H](Oc3ccc(N4CCNCC4)nc3)CCN21 [Example 16, 5-[(4R,8S,9aS)-4-methyl-8-[(6-piperazin-1-yl-3-pyridyl)oxy]-1,3,4,6,7,8,9,9a-octahydropyrido[1,2-a]pyrazin-2-yl]quinoline-8-carbonitrile]	37
C[C@@H]1CN(c2ccc(C#N)c3ncccc23)C[C@@H]2C[C@@H](Oc3cnc(N4CCNCC4)nc3)CCN21 [Example 18, 5-[(4R,8S,9aS)-4-methyl-8-(2-piperazin-1-ylpyrimidin-5-yl)oxy-1,3,4,6,7,8,9,9a-octahydropyrido[1,2-a]pyrazin-2-yl]quinoline-8-carbonitrile]	60
C[C@@H]1CN(c2ccc(C#N)c3ncccc23)C[C@@H]2C[C@H](Nc3ccc([C@H]4CNCCO4)cc3)CCN21 [Example 20, 5-[(4R,8R,9aS)-4-methyl-8-[4-[(2S)-morpholin-2-yl]anilino]-1,3,4,6,7,8,9,9a-octahydropyrido[1,2-a]pyrazin-2-yl]quinoline-8-carbonitrile]	50
[2H]c1ccc2c(N3C[C@@H]4C[C@H](Nc5ccc(C[C@@H]6CNCCO6)cc5)CCN4[C@H](C)C3)ccc(C#N)c2n1 [Example 22, 5-[(4R,8R,9aS)-4-methyl-8-[4-[[(2R)-morpholin-2-yl]methyl]anilino]-1,3,4,6,7,8,9,9a-octahydropyrido[1,2-a]pyrazin-2-yl]-2-deuterio-quinoline-8-carbonitrile]	84
C[C@@H]1CN(c2ccc(C#N)c3ncccc23)C[C@@H]2C[C@H](c3ccc(N4CCOC[C@@H](N)C4)nc3)CCN21 [Example 23, 5-[(4R,8R,9aS)-8[6-[(6S)-6-amino-1,4-oxazepan-4-yl]-3-pyridyl]-4-methyl-1,3,4,6,7,8,9,9a-octahydropyrido[1,2-a]pyrazin-2-yl]quinoline-8-carbonitrile]	75
C[C@@H]1CN(c2ccc(C#N)c3ncccc23)C[C@@H]2C[C@@H](c3ccc(CC4CNCCO4)cc3)CCN21 (stereo partly drawn) [Example 26, 5-[(4R,8S,9aS)-4-methyl-8-[4-(morpholin-2-ylmethyl)phenyl]-1,3,4,6,7,8,9,9a-octahydropyrido[1,2-a]pyrazin-2-yl]quinoline-8-carbonitrile]	95
CO[C@H]1CN(c2ccc(O[C@H]3CCN4[C@@H](C3)CN(c3ccc(C#N)c5ncccc35)C[C@H]4C)cn2)C[C@H]1N [Example 28, 5-[(4R,8S,9aS)-8-[[6-[(3R,4S)-3-amino-4-methoxy-pyrrolidin-1-yl]-3-pyridyl]oxy]-4-methyl-1,3,4,6,7,8,9,9a-octahydropyrido[1,2-a]pyrazin-2-yl]quinoline-8-carbonitrile]	44
CO[C@@H]1CN(c2ccc(C3CN([C@@H]4CCN5[C@@H](C4)CN(c4ccc(C#N)c6ncccc46)C[C@H]5C)C3)cc2)C[C@H]1N [Example 30, 5-[(4R,8R,9aS)-8-[3-[4-[(3R,4R)-3-amino-4-methoxy-pyrrolidin-1-yl]phenyl]azetidin-1-yl]-4-methyl-1,3,4,6,7,8,9,9a-octahydropyrido[1,2-a]pyrazin-2-yl]quinoline-8-carbonitrile]	78
CO[C@H]1CN(c2ccc(C3CN([C@@H]4CCN5[C@@H](C4)CN(c4ccc(C#N)c6ncccc46)C[C@H]5C)C3)cc2)C[C@H]1N [Example 32, 5-[(4R,8R,9aS)-8-[3-[4-[(3R,4S)-3-amino-4-methoxy-pyrrolidin-1-yl]phenyl]azetidin-1-yl]-4-methyl-1,3,4,6,7,8,9,9a-octahydropyrido[1,2-a]pyrazin-2-yl]quinoline-8-carbonitrile]	33
